Earlier results as cited in patent publication US12220423B2, “Compounds, derivatives, and analogs for cancer” (HYGIA PHARMACEUTICALS, LLC, priority 2018, dated 2025).

Test system: KRAS
Settings: K-562 cells treated with 750 micromolars of IP6 for 60 min; p<0.05

O=P(O)(O)O[C@H]1[C@H](OP(=O)(O)O)[C@@H](OP(=O)(O)O)[C@H](OP(=O)(O)O)[C@@H](OP(=O)(O)O)[C@H]1OP(=O)(O)O [myo inositol hexaphosphate]
down regulation of KRAS and other relevant genes: down regulates KRAS and other relevant genes significantly
